Assay results as given in patent US20240025862A1, “SUBSTITUTED N-PHENYLURACILS AND SALTS THEREOF, AND USE THEREOF AS HERBICIDAL ACTIVE SUBSTANCES” (Bayer Aktiengesellschaft, priority 2020, published 2024).
Values belong to the molecule of their own block, whether it stands above or below them.

Experiments:
Format in all cases: in vivo
[1] = test system: Abutilon theophrasti (ABUTH); experiment: Post-emergence herbicidal action, greenhouse pot test; settings: rated visually after about 3 weeks vs untreated controls, 100% = plants have died
Procedure, shortened: (§1)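 Activity was scored by eye about 3 weeks after treatment against untreated plants, where 100% means dead plants and 0% means no difference. Plants at the one-leaf stage received a foliar spray of WP or EC formulations in water plus 0.5% additive (600 l/ha, up to 20 g/ha). Plants were grown in sandy loam pots in a greenhouse for 2–3 weeks before spraying.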

[2] = test system: Polygonum convolvulus (POLCO); experiment: as above
Procedure, shortened: as §1

[3] = test system: Pharbitis purpurea (PHBPU); experiment: as above
Procedure, shortened: as §1

[4] = test system: Amaranthus retroflexus (AMARE); experiment: as above; settings: rated visually after about 3 weeks vs untreated controls, 100% = plants have died
Procedure, shortened: as §1

Veronica persica (VERPE) = experiment: as above
Procedure, shortened: as §1

Viola tricolor (VIOTR) = experiment: as above
Procedure, shortened: as §1

Stellaria media (STEME) = experiment: as above
Procedure, shortened: as §1

Brassica napus (BRSNW) = experiment: Post-emergence crop plant compatibility, greenhouse pot test; settings: for Post-emergence action against BRSNW (crop plant compatibility): vs untreated controls; for Post-emergence action at 5 g/ha against BRSNW in %: crop plant compatibility, observed effects on crop plant in comparison to untreated controls
Procedure, shortened: (§2)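 Compatibility was scored as visual % effect against untreated controls about 3 weeks after spraying green plant parts at the one-leaf stage. Formulations (WP/EC) were applied in aqueous form with 0.5% additive, 600 l/ha, to greenhouse-grown pot plants.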

Glycine max (GLXMA) = experiment: as above
Procedure, shortened: as §2

[5] = test system: Triticum aestivum (TRZAS); experiment: as above; settings: 1.25 g/ha, vs untreated controls
Procedure, shortened: as §2

Oryza sativa (ORYSA) = experiment: Post-emergence crop plant compatibility, greenhouse pot test (also comparative test C); settings: for Post-emergence action against ORYSA (crop plant compatibility): vs untreated controls
Procedure, shortened: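 Visual damage versus untreated plants (0% = like control, 100% = plants died) was scored about 3 weeks after a post-emergence spray in greenhouse pots. Treatment: one-leaf stage, WP or EC in water at 600 l/ha with 0.5% additive; a/b/c mark different dosages on the same crop.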

[6] = test system: Matricaria inodora (MATIN); experiment: Post-emergence herbicidal action, greenhouse pot test (also comparative test C)
Procedure, shortened: (§3)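 Green parts of one-leaf-stage plants are sprayed at 600 l/ha with formulated compound plus 0.5% additive, then kept under optimum greenhouse conditions for about 3 weeks. Damage is scored visually, where 100% means dead plants and 0% means no difference from controls.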

[7] = test system: Alopecurus myosuroides (ALOMY); experiment: as above; settings: rated visually after about 3 weeks vs untreated controls, 100% = plants have died
Procedure, shortened: as §3

[8] = test system: Echinochloa crus-galli (ECHCG); experiment: as above
Procedure, shortened: as §3

Setaria viridis (SETVI) = experiment: as above
Procedure, shortened: as §3

Zea mays (ZEAMX) = experiment: Post-emergence crop plant compatibility, greenhouse pot test; settings: 1.25 g/ha, vs untreated controls
Procedure, shortened: as §2

Lolium rigidum (LOLRI) = experiment: Post-emergence herbicidal action, greenhouse pot test; settings: Lolium rigidum, 504 h, dosage 20 g/ha, read-out: Post-emergence action against LOLRI in %
Procedure, shortened: as §1

Avena fatua (AVEFA) = experiment: as above; settings: rated visually after about 3 weeks vs untreated controls, 100% = plants have died
Procedure, shortened: as §1

- Post-emergence action against BRSNW (crop plant compatibility) (Brassica napus (BRSNW); 1.25 g/ha): 20%
- Post-emergence action against GLXMA in % (Glycine max (GLXMA); 1.25 g/ha): 0%
- Post-emergence action against GLXMA in % (Glycine max (GLXMA); 5 g/ha): 10%
- Post-emergence action against GLXMA in % (Glycine max (GLXMA); 20 g/ha): 20%
- Post-emergence action against TRZAS (crop plant compatibility) [5]: 20%
- Post-emergence action against ORYSA (crop plant compatibility) (Oryza sativa (ORYSA); 1.25 g/ha): 10%
- Post-emergence action against ORYSA (crop plant compatibility) (Oryza sativa (ORYSA); 5 g/ha): 10%
Structure (SMILES): COCCOCCOC(=O)C(C)Oc1ccccc1Sc1cc(-n2c(=O)cc(C(F)(F)F)n(C)c2=O)c(F)cc1Cl (racemic) [I.2-23]
- Post-emergence action at 1.25 g/ha against ABUTH in % [1]: 100%
- Post-emergence action at 5 g/ha against ABUTH in % ([1]; 5 g/ha): 100%
- Post-emergence action at 20 g/ha against ABUTH in % ([1]; 20 g/ha): 100%
- Post-emergence action against POLCO in % ([2]; dosage 5 g/ha): 100%
- Post-emergence action against POLCO in % ([2]; dosage 20 g/ha): 100%
- Post-emergence action against PHBPU in % ([3]; dosage 1.25 g/ha): 100%
- Post-emergence action against PHBPU in % ([3]; dosage 5 g/ha): 100%
- Post-emergence action against PHBPU in % ([3]; dosage 20 g/ha): 100%
- Post-emergence action at 1.25 g/ha against AMARE in % [4]: 80%
- Post-emergence action at 5 g/ha against AMARE in % ([4]; 5 g/ha): 100%
- Post-emergence action at 20 g/ha against AMARE in % ([4]; 20 g/ha): 100%
- Post-emergence action against VERPE (Veronica persica (VERPE); 1.25 g/ha): 80%
- Post-emergence action against VERPE (Veronica persica (VERPE); 5 g/ha): 100%
- Post-emergence action against VERPE (Veronica persica (VERPE); 20 g/ha): 100%
- Post-emergence action against VIOTR (Viola tricolor (VIOTR); 5 g/ha): 100%
- Post-emergence action against VIOTR (Viola tricolor (VIOTR); 20 g/ha): 100%
- Post-emergence action against STEME (Stellaria media (STEME); 5 g/ha): 100%
- Post-emergence action against STEME (Stellaria media (STEME); 20 g/ha): 100%
- Post-emergence action at 5 g/ha against BRSNW in % (Brassica napus (BRSNW)): 20%
- Post-emergence action against MATIN in % ([6]; dosage 5 g/ha): 80%
- Post-emergence action against MATIN in % ([6]; dosage 20 g/ha): 100%
- Post-emergence action at 20 g/ha against ALOMY in % ([7]; 20 g/ha): 80%
- Post-emergence action against ECHCG in % ([8]; dosage 5 g/ha): 100%
- Post-emergence action against ECHCG in % ([8]; dosage 20 g/ha): 100%
- Post-emergence action against SETVI (Setaria viridis (SETVI); 20 g/ha): 100%
- Post-emergence action against SETVI in % (Setaria viridis (SETVI); dosage 5 g/ha): 100%

- Post-emergence action against BRSNW (crop plant compatibility) (Brassica napus (BRSNW); 1.25 g/ha): 20%
- Post-emergence action against ZEAMX (crop plant compatibility) (Zea mays (ZEAMX)): 10%
- Post-emergence action against GLXMA in % (Glycine max (GLXMA); 1.25 g/ha): 10%
- Post-emergence action against GLXMA in % (Glycine max (GLXMA); 5 g/ha): 10%
- Post-emergence action against ORYSA (crop plant compatibility) (Oryza sativa (ORYSA); 1.25 g/ha): 10%
- Post-emergence action against ORYSA (crop plant compatibility) (Oryza sativa (ORYSA); 5 g/ha): 10%
- Post-emergence action against ORYSA in % (Oryza sativa (ORYSA); 20 g/ha, crop plant compatibility): 20%
Structure (SMILES): CC(Oc1ccccc1Sc1cc(-n2c(=O)cc(C(F)(F)F)n(C)c2=O)c(F)cc1Cl)C(=O)OCCO (racemic) [I.2-58]
- Post-emergence action at 1.25 g/ha against ABUTH in % [1]: 100%
- Post-emergence action at 5 g/ha against ABUTH in % ([1]; 5 g/ha): 100%
- Post-emergence action at 20 g/ha against ABUTH in % ([1]; 20 g/ha): 100%
- Post-emergence action against POLCO in % ([2]; dosage 1.25 g/ha): 100%
- Post-emergence action against POLCO in % ([2]; dosage 5 g/ha): 100%
- Post-emergence action against POLCO in % ([2]; dosage 20 g/ha): 100%
- Post-emergence action against PHBPU in % ([3]; dosage 5 g/ha): 80%
- Post-emergence action against PHBPU in % ([3]; dosage 20 g/ha): 100%
- Post-emergence action at 1.25 g/ha against AMARE in % [4]: 90%
- Post-emergence action at 5 g/ha against AMARE in % ([4]; 5 g/ha): 100%
- Post-emergence action at 20 g/ha against AMARE in % ([4]; 20 g/ha): 100%
- Post-emergence action against VERPE (Veronica persica (VERPE); 5 g/ha): 80%
- Post-emergence action against VERPE (Veronica persica (VERPE); 20 g/ha): 100%
- Post-emergence action against VIOTR (Viola tricolor (VIOTR); 1.25 g/ha): 100%
- Post-emergence action against VIOTR (Viola tricolor (VIOTR); 5 g/ha): 100%
- Post-emergence action against VIOTR (Viola tricolor (VIOTR); 20 g/ha): 100%
- Post-emergence action against STEME (Stellaria media (STEME); 5 g/ha): 100%
- Post-emergence action against STEME (Stellaria media (STEME); 20 g/ha): 100%
- Post-emergence action against MATIN in % ([6]; dosage 5 g/ha): 80%
- Post-emergence action against MATIN in % ([6]; dosage 20 g/ha): 90%
- Post-emergence action at 20 g/ha against ALOMY in % ([7]; 20 g/ha): 80%
- Post-emergence action against SETVI (Setaria viridis (SETVI); 20 g/ha): 100%
- Post-emergence action against SETVI in % (Setaria viridis (SETVI); dosage 1.25 g/ha): 100%
- Post-emergence action against SETVI in % (Setaria viridis (SETVI); dosage 5 g/ha): 100%

- Post-emergence action against BRSNW (crop plant compatibility) (Brassica napus (BRSNW); 20 g/ha): 20%
Structure (SMILES): Cn1c(C(F)(F)F)cc(=O)n(-c2cc(Oc3ccccc3OCC(=O)OCC#N)c(Cl)cc2F)c1=O [I.7-176, Cyanomethyl (2-{2-chloro-4-fluoro-5-[3-methyl-2,6-dioxo-4-(trifluoromethyl)-3,6-dihydropyrimidin-1(2H)-yl]phenoxy}phenoxy)acetate]
- pest or weed control at 5 g/ha ([1]; Abutilon theophrasti, 504 h, 5 g/ha, read-out: Post-emergence action at 5 g/ha against ABUTH in %): 100%
- pest or weed control at 20 g/ha ([1]; Abutilon theophrasti, 504 h, 20 g/ha, read-out: Post-emergence action at 20 g/ha against ABUTH in %): 100%
- pest or weed control at 5 g/ha ([2]; Fallopia convolvulus, 504 h, dosage 5 g/ha, read-out: Post-emergence action against POLCO in %): 100%
- pest or weed control at 20 g/ha ([2]; Fallopia convolvulus, 504 h, dosage 20 g/ha, read-out: Post-emergence action against POLCO in %): 100%
- pest or weed control at 5 g/ha ([3]; Ipomoea purpurea, 504 h, dosage 5 g/ha, read-out: Post-emergence action against PHBPU in %): 100%
- pest or weed control at 20 g/ha ([3]; Ipomoea purpurea, 504 h, dosage 20 g/ha, read-out: Post-emergence action against PHBPU in %): 100%
- pest or weed control at 5 g/ha ([4]; Amaranthus retroflexus, 504 h, 5 g/ha, read-out: Post-emergence action at 5 g/ha against AMARE in %): 100%
- pest or weed control at 20 g/ha ([4]; Amaranthus retroflexus, 504 h, 20 g/ha, read-out: Post-emergence action at 20 g/ha against AMARE in %): 100%
- pest or weed control at 20 g/ha (Lolium rigidum (LOLRI)): 80%
- pest or weed control at 5 g/ha (Veronica persica (VERPE); Veronica persica, 504 h, 5 g/ha, read-out: Post-emergence action against VERPE): 100%
- pest or weed control at 20 g/ha (Veronica persica (VERPE); Veronica persica, 504 h, 20 g/ha, read-out: Post-emergence action against VERPE): 100%
- Post-emergence action at 5 g/ha against AVEFA in % (Avena fatua (AVEFA); 5 g/ha): 80%
- pest or weed control at 20 g/ha (Avena fatua (AVEFA); Avena fatua, 504 h, 20 g/ha, read-out: Post-emergence action at 20 g/ha against AVEFA in %): 100%
- pest or weed control at 5 g/ha (Viola tricolor (VIOTR); Viola tricolor, 504 h, 5 g/ha, read-out: Post-emergence action against VIOTR): 100%
- pest or weed control at 20 g/ha (Viola tricolor (VIOTR); Viola tricolor, 504 h, 20 g/ha, read-out: Post-emergence action against VIOTR): 100%
- Post-emergence action at 5 g/ha against BRSNW in % (Brassica napus (BRSNW)): 20%
- pest or weed control at 5 g/ha ([6]; Tripleurospermum inodorum, 504 h, dosage 5 g/ha, read-out: Post-emergence action against MATIN in %): 90%
- pest or weed control at 20 g/ha ([6]; Tripleurospermum inodorum, 504 h, dosage 20 g/ha, read-out: Post-emergence action against MATIN in %): 100%
- pest or weed control at 5 g/ha ([7]; Alopecurus myosuroides, 504 h, 5 g/ha, read-out: Post-emergence action at 5 g/ha against ALOMY in %): 100%
- pest or weed control at 20 g/ha ([7]; Alopecurus myosuroides, 504 h, 20 g/ha, read-out: Post-emergence action at 20 g/ha against ALOMY in %): 100%
- pest or weed control at 5 g/ha ([8]; Echinochloa crus-galli, 504 h, dosage 5 g/ha, read-out: Post-emergence action against ECHCG in %): 100%
- pest or weed control at 20 g/ha ([8]; Echinochloa crus-galli, 504 h, dosage 20 g/ha, read-out: Post-emergence action against ECHCG in %): 100%
- pest or weed control at 20 g/ha (Setaria viridis (SETVI); Setaria viridis, 504 h, 20 g/ha, read-out: Post-emergence action against SETVI): 100%
- pest or weed control at 5 g/ha (Setaria viridis (SETVI); Setaria viridis, 504 h, dosage 5 g/ha, read-out: Post-emergence action against SETVI in %): 100%
